Reference: patent US12139520B2 (priority 2020, dated 2024)
Bridge positions count the residues as written; N and C are the ends. Square brackets hold non-standard residues; d marks the D form. Peptide text beside a SMILES is read from it. Hyp = O=C(O)[C@@H]1C[C@@H](O)CN1; Cit = NC(=O)NCCC[C@H](N)C(=O)O

What was measured:
[1] = Physical stability of peptide analogues (Thioflavin T fibrillation); format: physicochemical; conditions: maximum ThT signal normalized between hAMY maximum and buffer background; 40° C., shaking, four days; pH 7 per table title
Method in brief: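 ThT fluorescence (450 nm excitation, 480 nm emission; 4 μM dye) was read every 10 min over four days at 40° C under 700 rpm shaking stress, after 1 h in pH 4 acetate or pH 7 phosphate (50 mM). Peak smoothed signal expressed as percent, scaled between buffer background and hAMY maximum.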

hAM1 receptor = hAM1 receptor (Homo sapiens, UniProt O60895+Q16602); experiment: cAMP assay for in vitro receptor activation, hAM1-R; format: cell-based; conditions: cAMP assay, hAM1 receptor; read-out: hAM1R EC50
Method in brief: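 A subcloned monoclonal line stably expressing hAM1 receptor is thawed and plated at 8000 cells/well. The assay buffer is DPBS with 0.05% casein and 0.5 mM IBMX, and receptor activation is followed by cAMP levels.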

hAMY3 receptor = molecular target: T1, hAMY3 receptor (Homo sapiens, UniProt O60896+P30988); experiment: cAMP assay for in vitro receptor activation, hAMY3-R; format: cell-based; conditions: cAMP assay, hAMY3 receptor; read-out: hAMY3R EC50
T1 sequence (P30988 25-474): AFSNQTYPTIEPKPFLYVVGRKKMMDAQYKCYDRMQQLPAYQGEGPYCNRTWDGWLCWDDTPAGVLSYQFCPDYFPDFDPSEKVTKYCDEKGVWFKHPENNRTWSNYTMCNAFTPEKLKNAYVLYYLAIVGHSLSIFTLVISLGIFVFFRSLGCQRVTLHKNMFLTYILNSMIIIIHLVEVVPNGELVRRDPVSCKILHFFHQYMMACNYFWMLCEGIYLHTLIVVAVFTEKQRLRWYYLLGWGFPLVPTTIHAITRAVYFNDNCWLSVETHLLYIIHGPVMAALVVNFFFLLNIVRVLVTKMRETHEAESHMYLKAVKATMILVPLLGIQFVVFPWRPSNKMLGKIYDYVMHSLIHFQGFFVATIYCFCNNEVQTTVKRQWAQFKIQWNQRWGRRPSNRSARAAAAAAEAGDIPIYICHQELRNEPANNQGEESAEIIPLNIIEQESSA
T1 sequence (O60896 24-148 partner): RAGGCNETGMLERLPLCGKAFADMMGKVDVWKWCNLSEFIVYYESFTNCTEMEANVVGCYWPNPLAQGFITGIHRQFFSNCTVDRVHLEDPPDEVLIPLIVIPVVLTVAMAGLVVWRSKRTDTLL
Method in brief: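 Graded compound concentrations were applied for 30 min at room temperature to stably hAMY3-expressing cells in DPBS, 0.05% casein, 0.5 mM IBMX; cAMP detected by TR-FRET.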

hAM1 receptor, sequence (Q16602 23-461): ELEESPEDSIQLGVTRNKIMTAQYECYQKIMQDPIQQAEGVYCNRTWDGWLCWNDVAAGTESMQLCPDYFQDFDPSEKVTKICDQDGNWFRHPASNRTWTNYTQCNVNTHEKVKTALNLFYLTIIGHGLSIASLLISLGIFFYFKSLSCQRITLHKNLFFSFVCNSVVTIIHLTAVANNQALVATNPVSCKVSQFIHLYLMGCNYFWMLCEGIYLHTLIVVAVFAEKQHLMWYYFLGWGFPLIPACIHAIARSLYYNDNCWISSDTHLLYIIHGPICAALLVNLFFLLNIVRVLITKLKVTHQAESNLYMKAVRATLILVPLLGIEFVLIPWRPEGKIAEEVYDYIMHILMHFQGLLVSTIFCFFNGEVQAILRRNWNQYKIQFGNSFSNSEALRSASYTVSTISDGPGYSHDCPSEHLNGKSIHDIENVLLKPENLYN
hAM1 receptor, sequence (O60895 43-175 partner): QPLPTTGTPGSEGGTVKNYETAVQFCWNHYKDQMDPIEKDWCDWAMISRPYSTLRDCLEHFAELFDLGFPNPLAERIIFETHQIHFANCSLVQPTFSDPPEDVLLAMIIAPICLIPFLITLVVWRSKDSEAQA

| SMILES | Max ThT signal (%) [1] | EC50 (hAM1 receptor) | EC50 (hAMY3 receptor) |
| --- | --- | --- | --- |
| CC[C@H](C)[C@H](NC(=O)[C@H](CCC(N)=O)NC(=O)[C@H](Cc1c[nH]cn1)NC(=O)[C@H](C)NC(=O)[C@H](CC(C)C)NC(=O)[C@H](CCCNC(N)=O)NC(=O)[C@H](CCC(N)=O)NC(=O)[C@@H](NC(=O)[C@@H](NC(=O)[C@@H]1CSSC[C@H](NC(=O)CN)C(=O)N[C@@H](CCCNC(=N)N)C(=O)N[C@@H](Cc2ccccc2)C(=O)NCC(=O)N[C@@H]([C@@H](C)O)C(=O)N1)[C@@H](C)O)C(C)C)C(=O)N[C@@H](Cc1ccc(O)cc1)C(=O)N[C@@H](CCC(N)=O)C(=O)N[C@@H](Cc1ccccc1)C(=O)N[C@H](C(=O)N[C@@H](CC(=O)O)C(=O)N[C@@H](CCCCN)C(=O)N[C@@H](CC(=O)O)C(=O)N[C@@H](CCCCN)C(=O)N[C@@H](CC(=O)O)C(=O)N[C@@H](CC(N)=O)C(=O)N[C@H](C(=O)N[C@@H](C)C(=O)N1CCC[C@H]1C(=O)N[C@@H](CCCNC(=N)N)C(=O)N[C@@H](CO)C(=O)N[C@@H](CC(N)=O)C(=O)N[C@H](C(=O)N[C@@H](CO)C(=O)N1CCC[C@H]1C(=O)N[C@@H](CCC(N)=O)C(=O)NCC(=O)N1C[C@H](O)C[C@H]1C(N)=O)[C@@H](C)CC)C(C)C)[C@@H](C)O [compound 300] (H-GCRFGTCTVQ[Cit]LAHQIYQFTDKDKDNVAPRSNISPQG[Hyp]-NH2; disulfide 2-7; N-terminus assumed) | 17.850% | > 5000 nM | 0.076 nM |
| CC[C@H](C)[C@H](NC(=O)[C@H](CC(N)=O)NC(=O)[C@H](CO)NC(=O)[C@H](CCCNC(=N)N)NC(=O)[C@@H]1CCCN1C(=O)[C@H](C)NC(=O)[C@@H](NC(=O)[C@H](CC(N)=O)NC(=O)[C@H](CC(=O)O)NC(=O)[C@H](CCCCN)NC(=O)[C@H](CC(=O)O)NC(=O)[C@H](CCCCN)NC(=O)[C@H](CC(=O)O)NC(=O)[C@@H](NC(=O)[C@H](Cc1ccccc1)NC(=O)[C@H](CCC(N)=O)NC(=O)[C@H](Cc1ccc(O)cc1)NC(=O)[C@@H](NC(=O)[C@H](CCC(N)=O)NC(=O)[C@H](Cc1c[nH]cn1)NC(=O)[C@H](C)NC(=O)[C@H](CC(C)C)NC(=O)[C@H](CCCNC(N)=O)NC(=O)[C@H](CCC(N)=O)NC(=O)[C@@H](NC(=O)[C@@H](NC(=O)[C@@H]1CSSC[C@H](NC(=O)CN)C(=O)N[C@@H](CCCNC(=N)N)C(=O)N[C@@H]([C@@H](C)O)C(=O)NCC(=O)N[C@@H]([C@@H](C)O)C(=O)N1)[C@@H](C)O)C(C)C)[C@@H](C)CC)[C@@H](C)O)C(C)C)C(=O)NCC(=O)N1CCC[C@H]1C(=O)N[C@@H](CC(N)=O)C(=O)NCC(=O)N1C[C@H](O)C[C@H]1C(N)=O [compound 297] (H-GCRTGTCTVQ[Cit]LAHQIYQFTDKDKDNVAPRSNIGPNG[Hyp]-NH2; disulfide 2-7; N-terminus assumed) | 27.500% | > 5000 nM | 0.026 nM |
| CC[C@H](C)[C@H](NC(=O)[C@H](C)NC(=O)[C@H](Cc1c[nH]cn1)NC(=O)[C@H](C)NC(=O)[C@H](CC(C)C)NC(=O)[C@H](Cc1c[nH]c2ccccc12)NC(=O)[C@H](CCC(N)=O)NC(=O)[C@@H](NC(=O)[C@@H](NC(=O)[C@@H]1CSSC[C@H](NC(=O)[C@@H](N)CCCCN)C(=O)N[C@@H](CC(N)=O)C(=O)N[C@@H]([C@@H](C)O)C(=O)N[C@@H](C)C(=O)N[C@@H]([C@@H](C)O)C(=O)N1)[C@@H](C)O)C(C)C)C(=O)N[C@@H](Cc1ccc(O)cc1)C(=O)N[C@@H](CCC(N)=O)C(=O)N[C@@H](Cc1ccccc1)C(=O)N[C@H](C(=O)N[C@@H](CC(=O)O)C(=O)N[C@@H](CCCCN)C(=O)N[C@@H](CC(=O)O)C(=O)N[C@@H](CCCCN)C(=O)N[C@@H](CC(=O)O)C(=O)N[C@@H](CC(N)=O)C(=O)N[C@H](C(=O)N[C@@H](C)C(=O)N1CCC[C@H]1C(=O)N1CCC[C@H]1C(=O)N[C@H](C(=O)N[C@@H](CC(N)=O)C(=O)N[C@H](C(=O)NCC(=O)N[C@@H](CO)C(=O)N[C@@H](CC(N)=O)C(=O)NCC(=O)N1C[C@H](O)C[C@H]1C(N)=O)C(C)C)[C@@H](C)O)C(C)C)[C@@H](C)O [compound 308] (H-KCNTATCTVQWLAHAIYQFTDKDKDNVAPPTNVGSNG[Hyp]-NH2; disulfide 2-7; N-terminus assumed) | 14.500% | > 5000 nM | 0.014 nM |
| CC[C@H](C)[C@H](NC(=O)[C@H](CCC(N)=O)NC(=O)[C@H](Cc1c[nH]cn1)NC(=O)[C@H](C)NC(=O)[C@H](CC(C)C)NC(=O)[C@H](Cc1c[nH]c2ccccc12)NC(=O)[C@H](CCC(N)=O)NC(=O)[C@@H](NC(=O)[C@@H](NC(=O)[C@@H]1CSSC[C@H](NC(=O)[C@@H](N)CCCCN)C(=O)N[C@@H](CC(N)=O)C(=O)N[C@@H]([C@@H](C)O)C(=O)N[C@@H](C)C(=O)N[C@@H]([C@@H](C)O)C(=O)N1)[C@@H](C)O)C(C)C)C(=O)N[C@@H](Cc1ccc(O)cc1)C(=O)N[C@@H](CCC(N)=O)C(=O)N[C@@H](Cc1ccccc1)C(=O)N[C@H](C(=O)N[C@@H](CC(=O)O)C(=O)N[C@@H](CCCCN)C(=O)N[C@@H](CC(=O)O)C(=O)N[C@@H](CCCCN)C(=O)N[C@@H](CC(=O)O)C(=O)N[C@@H](CC(N)=O)C(=O)N[C@H](C(=O)N[C@@H](C)C(=O)N1CCC[C@H]1C(=O)N[C@@H](CCCNC(=N)N)C(=O)N[C@H](C(=O)N[C@@H](CCC(=O)O)C(=O)N[C@H](C(=O)NCC(=O)N[C@@H](CO)C(=O)N[C@@H](CC(N)=O)C(=O)NCC(=O)N[C@@H](Cc1ccc(O)cc1)C(N)=O)C(C)C)[C@@H](C)O)C(C)C)[C@@H](C)O [compound 334] (H-KCNTATCTVQWLAHQIYQFTDKDKDNVAPRTEVGSNGY-NH2; disulfide 2-7) | 10.150% | > 5000 nM | 0.013 nM |
| CC[C@H](C)[C@H](NC(=O)[C@H](CCC(N)=O)NC(=O)[C@H](Cc1c[nH]cn1)NC(=O)[C@H](C)NC(=O)[C@H](CC(C)C)NC(=O)[C@H](CCCNC(N)=O)NC(=O)[C@H](CCC(N)=O)NC(=O)[C@@H](NC(=O)[C@@H](NC(=O)[C@@H]1CSSC[C@H](NC(=O)[C@@H](N)CCCCN)C(=O)N[C@@H](CC(N)=O)C(=O)N[C@@H]([C@@H](C)O)C(=O)N[C@@H](C)C(=O)N[C@@H]([C@@H](C)O)C(=O)N1)[C@@H](C)O)C(C)C)C(=O)N[C@@H](Cc1ccc(O)cc1)C(=O)N[C@@H](CCC(N)=O)C(=O)N[C@@H](Cc1ccccc1)C(=O)N[C@H](C(=O)N[C@@H](CC(=O)O)C(=O)N[C@@H](CCCCN)C(=O)N[C@@H](CC(=O)O)C(=O)N[C@@H](CCCCN)C(=O)N[C@@H](CC(=O)O)C(=O)N[C@@H](CC(N)=O)C(=O)N[C@H](C(=O)N[C@@H](C)C(=O)N[C@@H](C)C(=O)N1CCC[C@H]1C(=O)N[C@H](C(=O)N[C@@H](CC(N)=O)C(=O)N[C@H](C(=O)NCC(=O)N[C@@H](CO)C(=O)N[C@@H](CC(N)=O)C(=O)NCC(=O)N1C[C@H](O)C[C@H]1C(N)=O)C(C)C)[C@@H](C)O)C(C)C)[C@@H](C)O [compound 262] (H-KCNTATCTVQ[Cit]LAHQIYQFTDKDKDNVAAPTNVGSNG[Hyp]-NH2; disulfide 2-7; N-terminus assumed) | 9.550% | > 5000 nM | 0.014 nM |
| CC[C@H](C)[C@H](NC(=O)[C@H](CCC(N)=O)NC(=O)[C@H](Cc1c[nH]cn1)NC(=O)[C@H](C)NC(=O)[C@H](CC(C)C)NC(=O)[C@H](CCCNC(N)=O)NC(=O)[C@H](CCC(N)=O)NC(=O)[C@@H](NC(=O)[C@@H](NC(=O)[C@@H]1CSSC[C@H](NC(=O)CN)C(=O)N[C@@H](CCCNC(=N)N)C(=O)N[C@@H](Cc2ccccc2)C(=O)NCC(=O)N[C@@H]([C@@H](C)O)C(=O)N1)[C@@H](C)O)C(C)C)C(=O)N[C@@H](Cc1ccc(O)cc1)C(=O)N[C@@H](CCC(N)=O)C(=O)N[C@@H](Cc1ccccc1)C(=O)N[C@H](C(=O)N[C@@H](CC(=O)O)C(=O)N[C@@H](CCCCN)C(=O)N[C@@H](CC(=O)O)C(=O)N[C@@H](CCCCN)C(=O)N[C@@H](CC(=O)O)C(=O)N[C@@H](CC(N)=O)C(=O)N[C@H](C(=O)N[C@@H](C)C(=O)N1CCC[C@H]1C(=O)N[C@@H](CCCNC(=N)N)C(=O)N[C@H](C(=O)N[C@@H](CCCCN)C(=O)N[C@H](C(=O)N[C@@H](CO)C(=O)N1CCC[C@H]1C(=O)N[C@@H](CC(N)=O)C(=O)NCC(=O)N1C[C@H](O)C[C@H]1C(N)=O)C(C)C)[C@@H](C)O)C(C)C)[C@@H](C)O [compound 288] (H-GCRFGTCTVQ[Cit]LAHQIYQFTDKDKDNVAPRTKVSPNG[Hyp]-NH2; disulfide 2-7; N-terminus assumed) | 17.450% | > 5000 nM | 0.03 nM |
